Four compounds from patent US12509434B2, “Optically resolved Trolox intermediate and method for producing same” (PTC THERAPEUTICS, INC., priority 2020, dated 2025) can be followed below.

Series [1] in a line: Solubility of the crystals in ethyl acetate solvent (reslurry, content of supernatant solution). Type of series: physicochemical. The protocol:
Solubility of RS-Trolox⋅R-PEA, R-Trolox⋅R-PEA, and S-Trolox⋅R-PEA to Ethyl Acetate Solvent
Each crystal was reslurried by adding ethyl acetate. The solubility was calculated from analyzing the content of supernatant solution of each reaction solution at each temperature.

A short description of series [2]: Solubility of the crystals in amide-based solvents NMP and DMA (reslurry, content of supernatant solution). In kind it is physicochemical. The following applies: 20 °C. The protocol: Solubility of R-Trolox⋅R-PEA, S-Trolox⋅R-PEA, and S-Trolox to NMP and DMA
Each crystal was reslurried by adding an amide-based solvent (NMP, DMA). The solubility was calculated from analyzing the content of supernatant solution of each reaction solution at each temperature.

On to `C[C@@H](N)c1ccccc1.Cc1c(C)c2c(c(C)c1O)CCC(C)(C(=O)O)O2` (racemic) [rac-Trolox], for which the “Solubility to ethyl acetate solvent” value was 0.02% in series [1] (0 °C); 0.02% in series [1] (15 °C); 0.07% in series [1] (30 °C); 0.38% in series [1] (45 °C); 1.08% in series [1] (60 °C); 2.82% in series [1] (75 °C).
Take `Cc1c(C)c2c(c(C)c1O)CC[C@](C)(C(=O)O)O2` [R-Trolox]: the “Solubility [%] DMA” value in series [2] was determined as 0.4%. Besides, in series [2], the “Solubility [%] NMP” value is recorded as 0.5%. Besides, the “Solubility to ethyl acetate solvent” value in series [1] (0 °C) is 0.07%; in series [1] (15 °C) it was 0.09%; in series [1] (30 °C) it was 0.10%; in series [1] (45 °C), 0.40%; in series [1] (60 °C) it was 0.78%; in series [1] (75 °C), 0.83%.
Regarding `Cc1c(C)c2c(c(C)c1O)CC[C@@](C)(C(=O)O)O2` [S-Trolox (Free), (S)-6-hydroxy-2,5,7,8-tetramethylchroman-2-carboxylic acid], in series [2], the “Solubility [%] DMA” value is given as at least 10% and the “Solubility [%] NMP” value was at least 10%.
On to `C[C@@H](N)c1ccccc1.Cc1c(C)c2c(c(C)c1O)CC[C@@](C)(C(=O)O)O2` [S-Trolox], for which the “Solubility [%] DMA” value in series [2] is on record as at least 10%. Further, in series [2], the “Solubility [%] NMP” value was at least 10%. For the same compound, the “Solubility to ethyl acetate solvent” value in series [1] (0 °C) was found to be 2.6%; in series [1] (15 °C) it was 9.9%; in series [1] (30 °C), 14.2%.
